Assay results reported in article PMC8699261, “Structural Characterization of Rat Galectin-5, an N-Tailed Monomeric Proto-Type-like Galectin” (Biomolecules, 2021).
Where “and” joins values, the source holds several entries; their conditions need not be identical. Identical values can stand only once. Like-named read-outs stand apart in the source and are kept apart here.

What was measured:
rat galectin-5 (rGal-5) [1] = target: T1, rat galectin-5 (rGal-5) (Rattus norvegicus, UniProt P47967); assay: Glycan array (609 compounds) tested with biotinylated rGal-5, Alexa555-streptavidin detection; format: binding; conditions: 100 µg/mL biotinylated rGal-5; ranking in words
T1 construct: we used the full-length protein to obtain structural information on the N-terminal tail; made in house
T1 sequence (P47967 whole entry): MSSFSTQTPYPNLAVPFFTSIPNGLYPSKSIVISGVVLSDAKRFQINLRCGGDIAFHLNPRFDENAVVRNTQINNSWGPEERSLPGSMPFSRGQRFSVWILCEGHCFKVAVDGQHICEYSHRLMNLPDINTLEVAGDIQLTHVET
Protocol: The array consisted of 609 compounds covering glycans and polysaccharides printed onto commercial NHS-activated Slide H (Schott Nexterion, Jena, Germany), tested with 100 µg/mL biotinylated rGal-5 and involving Alexa555-labeled streptavidin (Thermo Fisher Scientific, Eugene, OR, USA) as second-step reagent for Innoscan 1100AL scanner-based (Innopsys, Carbonne, France) signal qualification, expressed in medium relative fluorescence units (RFU) and medium absolute deviation (MAD), as described previously. When the fluorescence intensity exceeded the background value by a factor of five, the respective signal was considered to be significant.

rat galectin-5 (rGal-5) [2] = target: T1, rat galectin-5 (rGal-5); assay: Isothermal titration calorimetry (ITC) of ligand binding to recombinant rGal-5
Protocol: The spacered B (type 2) tetrasaccharide was synthesized as described previously. Titrations were monitored in a PEAQ-ITC calorimeter (Malvern, Westborough, MA, USA), using a galectin-containing solution of 250 µL in PBS (10 mM Na2HPO4, 2 mM KH2PO4, 137 mM NaCl and 3 mM KCl at pH 6.8) containing 10 mM β-mercaptoethanol and injections at 150 s intervals of 2 µL ligand-containing solution (up to adding 36.4 µL) at 25 °C (750 rpm), as described. The protein concentration was 125 μM, and the ligand concentration in the syringe was 2.5 mM. In each titration, a fitted offset parameter was applied to account for potential background. Data processing was performed using the MiroCal PEAQ-ITC Analysis software.

[3] = 25 °C, individual titration, protein 125 μM, ligand 2.5 mM in syringe, PBS pH 6.8, read-out: Kd
[4] = (summarises Table 2), read-out: dissociation constant

Molecule	signal intensity in glycan array (rat galectin-5 (rGal-5) [1])	Stoichiometry (rat galectin-5 (rGal-5) [2]; 25 °C, individual titration)	ΔG0obs (rat galectin-5 (rGal-5) [2]; 25 °C, individual titration)	ΔH0obs (rat galectin-5 (rGal-5) [2]; 25 °C, individual titration)	−TΔS0obs (rat galectin-5 (rGal-5) [2]; 25 °C, individual titration)	Kd (rat galectin-5 (rGal-5) [2]; [3])	Kd (rat galectin-5 (rGal-5) [2]; [4]) [µM]
CC(=O)N[C@H]1C(O)O[C@H](CO)[C@@H](O[C@@H]2O[C@H](CO)[C@H](O)[C@H](O[C@H]3O[C@H](CO)[C@H](O)[C@H](O)[C@H]3O)[C@H]2O)[C@@H]1O (some centres unmarked)	frontrunners in terms of signal intensity	–	–	–	–	–	–
OC[C@H]1O[C@@H](O[C@H]2[C@H](O)[C@@H](O)C(O)O[C@@H]2CO)[C@H](O)[C@@H](O)[C@H]1O (mixture of isomers) [Lactose, lactose]	–	0.95 ± 0.05 and 0.99 ± 0.06	-5.35 kcal/mol and -5.22 kcal/mol	-4.99 ± 0.08 kcal/mol and -5.03 ± 0.41 kcal/mol	-0.36 kcal/mol and -0.18 kcal/mol	121 µM and 151 µM	136 ± 16
CC(=O)N[C@H]1C(O)O[C@H](CO)[C@@H](O[C@@H]2O[C@H](CO)[C@H](O)[C@H](O)[C@H]2O)[C@@H]1O (some centres unmarked) [LacNAc, N-acetyllactosamine]	–	0.92 ± 0.01 and 0.94 ± 0.20	-6.1 kcal/mol and -6.0 kcal/mol	-10.0 ± 0.2 kcal/mol and -10.5 ± 2.6 kcal/mol	3.87 kcal/mol and 4.43 kcal/mol	28.6 µM and 32.3 µM	30.5 ± 1.9
histo-blood-group B (type 2) tetrasaccharide [Tetrasacc haride]	frontrunners in terms of signal intensity	0.98 ± 0.01 and 0.94 ± 0.01	-7.11 kcal/mol	-5.74 ± 0.03 kcal/mol and -5.60 ± 0.03 kcal/mol	-1.37 kcal/mol and -1.51 kcal/mol	5 µM and 6.1 µM	5.5 ± 0.6
